According to US4205163A, “Tylosin derivatives” (Sanraku-Ocean Co., Ltd., priority 1977, dated 1980):
In brackets after ≈: the same amount, converted by molar mass.

What was measured:
Assay in all cases: antimicrobial activity, broth dilution method
Assay type in all cases: cell-based
Sarcina lutea ATCC 9341 = settings: for MIC: Micrococcus luteus, ATCC9341, Sarcina lutea ATCC 9341, read-out: minimum inhibitory concentration (MIC)
Method: (§1) Antimicrobial activity of the new antibiotics according to the present invention was measured on various pathogenic microorganisms by the broth dilution mehtod. Tab. […] The new antibiotics show a similar antimicrobial spectrum to that of tylosin as shown in Tab. 4. All the compounds have an excellent antimicrobial activity mainly on gram-positive bacteria. […] Test microorganisms with an asterisk mark (*) in Tab. 4 are all drug-resistant strains that were clinically isolated. More in detail, Staphylococcus aureus MS-8710 is resistant to tylosin, penicillin, tetracycline, erythromycin and leucomycin. Staphylococcus aureus MS-9931 is resistant to tylosin, penicillin, erythromycin, tetracycline, leucomycin, spiramycin and josamycin. And also Streptococcus piogenes is resistant to tylosin, erythromycin, oleandomycin and leucomycin.

[1] = system: Staphylococcus aureus MS-9937; settings: Staphylococcus aureus MS-9937, drug-resistant clinical isolate; for MIC: MS9937, read-out: minimum inhibitory concentration (MIC)
Method: as §1

[2] = system: Staphylococcus aureus SMITH; settings: Staphylococcus aureus SMITH, broth dilution; for MIC: Staphylococcus aureus, read-out: minimum inhibitory concentration (MIC)
Method: as §1

[3] = system: Staphylococcus aureus MS-9931; settings: Staphylococcus aureus MS-9931, drug-resistant clinical isolate; for MIC: MS9931, read-out: minimum inhibitory concentration (MIC)
Method: as §1

[4] = system: Staphylococcus aureus MS-8710; settings: for MIC: Staphylococcus aureus, MS8710, Staphylococcus aureus MS-8710, drug-resistant clinical isolate, read-out: minimum inhibitory concentration (MIC)
Method: as §1

[5] = system: Bacillus cereus ATCC 9634; settings: broth dilution; for MIC: Bacillus cereus, ATCC9634, Bacillus cereus ATCC 9634, read-out: minimum inhibitory concentration (MIC)
Method: as §1

[6] = system: Streptococcus pyogenes MH-771; settings: for MIC: Streptococcus pyogenes, MH771, Streptococcus pyogenes MH-771, drug-resistant clinical isolate, read-out: minimum inhibitory concentration (MIC)
Method: as §1

[7] = system: Staphylococcus aureus FDA-209P; settings: Staphylococcus aureus FDA-209P, broth dilution; for MIC: Staphylococcus aureus, FDA209P, read-out: minimum inhibitory concentration (MIC)
Method: as §1

Structure (SMILES)	MIC (Sarcina lutea ATCC 9341)	MIC [1]	MIC [2]	MIC [3]	MIC [4]	MIC [5]	MIC [6]	MIC [7]	minimum inhibitory concentration (MIC) (Sarcina lutea ATCC 9341; Sarcina lutea ATCC 9341)	minimum inhibitory concentration (MIC) [1]	minimum inhibitory concentration (MIC) [2]	minimum inhibitory concentration (MIC) [3]	minimum inhibitory concentration (MIC) ([4]; Staphylococcus aureus MS-8710, drug-resistant clinical isolate)	minimum inhibitory concentration (MIC) ([5]; Bacillus cereus ATCC 9634)	minimum inhibitory concentration (MIC) ([6]; Streptococcus pyogenes MH-771, drug-resistant clinical isolate)	minimum inhibitory concentration (MIC) [7]
CCC(C(=O)OC1C(C)OC(OC2C(C)OC(OC3C(CC=O)CC(C)C(=O)C=CC(C)=CC(COC4OC(C)C(O)C(OC)C4OC)C(CC)OC(=O)CC(O)C3C)C(O)C2N(C)C)CC1(C)O)c1ccccc1 (stereo not drawn) [Compound 16, 4"-α-phenyl-n-butyryltylosin]	0.19 µg/mL (≈ 0.179 µM)	12.5 µg/mL (≈ 11.8 µM)	0.39 µg/mL (≈ 0.367 µM)	25 µg/mL (≈ 23.5 µM)	12.5 µg/mL (≈ 11.8 µM)	0.78 µg/mL (≈ 0.734 µM)	6.25 µg/mL (≈ 5.88 µM)	0.39 µg/mL (≈ 0.367 µM)								
CCC1OC(=O)CC(OC(C)=O)C(C)C(OC2OC(C)C(OC3CC(C)(O)C(OC(=O)C(OC(C)=O)c4ccccc4)C(C)O3)C(N(C)C)C2O)C(CC=O)CC(C)C(=O)C=CC(C)=CC1COC1OC(C)C(O)C(OC)C1OC [Compound 19, 3-acetyl-4"-D-(α-acetoxyphenylacetyl)tylosin]	0.78 µg/mL (≈ 0.688 µM)	100 µg/mL (≈ 88.2 µM)	0.78 µg/mL (≈ 0.688 µM)	100 µg/mL (≈ 88.2 µM)	100 µg/mL (≈ 88.2 µM)	0.78 µg/mL (≈ 0.688 µM)	25 µg/mL (≈ 22 µM)	1.56 µg/mL (≈ 1.38 µM)								
CCC1OC(=O)CC(OC(C)=O)C(C)C(OC2OC(C)C(OC3CC(C)(O)C(OC(=O)C(OC(C)=O)c4ccccc4)C(C)O3)C(N(C)C)C2O)C(CC=O)CC(C)C(=O)C=CC(C)=CC1COC1OC(C)C(O)C(OC)C1OC [Compound 20, 3-acetyl-4"-L-(α-acetoxyphenylacetyl)tylosin]									0.39 µg/mL (≈ 0.344 µM)	100 µg/mL (≈ 88.2 µM)	1.56 µg/mL (≈ 1.38 µM)	100 µg/mL (≈ 88.2 µM)	50 µg/mL (≈ 44.1 µM)	1.56 µg/mL (≈ 1.38 µM)	12.5 µg/mL (≈ 11 µM)	0.78 µg/mL (≈ 0.688 µM)
CCC1OC(=O)CC(OC(C)=O)C(C)C(OC2OC(C)C(OC3CC(C)(O)C(OC(=O)C(OC(C)=O)c4ccc(OC(C)=O)cc4)C(C)O3)C(N(C)C)C2O)C(CC=O)CC(C)C(=O)C=CC(C)=CC1COC1OC(C)C(O)C(OC)C1OC (stereo not drawn) [Compound 21, 3-acetyl-4"-[α-acetoxy-(4-acetoxyphenyl)acetyl]tylosin]	0.39 µg/mL (≈ 0.327 µM)	50 µg/mL (≈ 41.9 µM)	0.78 µg/mL (≈ 0.654 µM)	50 µg/mL (≈ 41.9 µM)	50 µg/mL (≈ 41.9 µM)	0.78 µg/mL (≈ 0.654 µM)	12.5 µg/mL (≈ 10.5 µM)	0.78 µg/mL (≈ 0.654 µM)								
CCC1OC(=O)CC(O)C(C)C(OC2OC(C)C(OC3CC(C)(O)C(OC(=O)Cc4cccc5ccccc45)C(C)O3)C(N(C)C)C2O)C(CC=O)CC(C)C(=O)C=CC(C)=CC1COC1OC(C)C(O)C(OC)C1OC (stereo not drawn) [Compound 22, 4"-α-naphthylacetyltylosin]	0.39 µg/mL (≈ 0.36 µM)	25 µg/mL (≈ 23.1 µM)	1.56 µg/mL (≈ 1.44 µM)	25 µg/mL (≈ 23.1 µM)	12.5 µg/mL (≈ 11.5 µM)	1.56 µg/mL (≈ 1.44 µM)	50 µg/mL (≈ 46.1 µM)	1.56 µg/mL (≈ 1.44 µM)								
CCC1OC(=O)CC(OC(C)=O)C(C)C(OC2OC(C)C(OC3CC(C)(O)C(OC(=O)Cc4cccc5ccccc45)C(C)O3)C(N(C)C)C2O)C(CC=O)CC(C)C(=O)C=CC(C)=CC1COC1OC(C)C(O)C(OC)C1OC (stereo not drawn) [Compound 23, 3-acetyl-4"-α-naphthylacetyltylosin]	0.39 µg/mL (≈ 0.346 µM)	50 µg/mL (≈ 44.4 µM)	0.78 µg/mL (≈ 0.693 µM)	25 µg/mL (≈ 22.2 µM)	25 µg/mL (≈ 22.2 µM)	0.78 µg/mL (≈ 0.693 µM)	25 µg/mL (≈ 22.2 µM)	0.78 µg/mL (≈ 0.693 µM)								
CCC1OC(=O)CC(OC(C)=O)C(C)C(OC2OC(C)C(OC3CC(C)(O)C(OC(=O)CCc4ccccc4)C(C)O3)C(N(C)C)C2O)C(CC=O)CC(C)C(=O)C=CC(C)=CC1COC1OC(C)C(O)C(OC)C1OC (stereo not drawn) [Compound 25, 3-acetyl-4"-β-phenylpropionyltylosin]	0.39 µg/mL (≈ 0.358 µM)	50 µg/mL (≈ 45.9 µM)	0.78 µg/mL (≈ 0.715 µM)	50 µg/mL (≈ 45.9 µM)	50 µg/mL (≈ 45.9 µM)	0.78 µg/mL (≈ 0.715 µM)	25 µg/mL (≈ 22.9 µM)	1.56 µg/mL (≈ 1.43 µM)								
CCC1OC(=O)CC(OC(C)=O)C(C)C(OC2OC(C)C(OC3CC(C)(O)C(OC(=O)C(O)Cc4ccccc4)C(C)O3)C(N(C)C)C2O)C(CC=O)CC(C)C(=O)C=CC(C)=CC1COC1OC(C)C(O)C(OC)C1OC [Compound 26, 3-acetyl-4"-L-[(α-hydroxy-β-phenyl)propionyl]tylosin]	0.39 µg/mL (≈ 0.353 µM)	50 µg/mL (≈ 45.2 µM)	0.78 µg/mL (≈ 0.705 µM)	50 µg/mL (≈ 45.2 µM)	50 µg/mL (≈ 45.2 µM)	0.78 µg/mL (≈ 0.705 µM)	12.5 µg/mL (≈ 11.3 µM)	0.78 µg/mL (≈ 0.705 µM)								
CCC1OC(=O)CC(OC(C)=O)C(C)C(OC2OC(C)C(OC3CC(C)(O)C(OC(=O)C(Cc4ccccc4)OC(C)=O)C(C)O3)C(N(C)C)C2O)C(CC=O)CC(C)C(=O)C=CC(C)=CC1COC1OC(C)C(O)C(OC)C1OC [Compound 27, 3-acetyl-4"-L-[(α-acetoxy-β-phenyl)propionyl]tylosin]	0.39 µg/mL (≈ 0.34 µM)	50 µg/mL (≈ 43.5 µM)	0.78 µg/mL (≈ 0.679 µM)	50 µg/mL (≈ 43.5 µM)	50 µg/mL (≈ 43.5 µM)	0.78 µg/mL (≈ 0.679 µM)	25 µg/mL (≈ 21.8 µM)	0.78 µg/mL (≈ 0.679 µM)								
CCC1OC(=O)CC(OC(C)=O)C(C)C(OC2OC(C)C(OC3CC(C)(O)C(OC(=O)C(Cc4ccc(OC(C)=O)cc4)OC(C)=O)C(C)O3)C(N(C)C)C2O)C(CC=O)CC(C)C(=O)C=CC(C)=CC1COC1OC(C)C(O)C(OC)C1OC (stereo not drawn) [Compound 28, 3-acetyl-4"-[α-acetoxy-β-(4-acetoxyphenyl)propionyl]tylosin]	0.78 µg/mL (≈ 0.647 µM)	25 µg/mL (≈ 20.7 µM)	1.56 µg/mL (≈ 1.29 µM)	50 µg/mL (≈ 41.4 µM)	25 µg/mL (≈ 20.7 µM)	1.56 µg/mL (≈ 1.29 µM)	25 µg/mL (≈ 20.7 µM)	1.56 µg/mL (≈ 1.29 µM)								
CCC1OC(=O)CC(OC(C)=O)C(C)C(OC2OC(C)C(OC3CC(C)(O)C(OC(=O)Cc4cccnc4)C(C)O3)C(N(C)C)C2O)C(CC=O)CC(C)C(=O)C=CC(C)=CC1COC1OC(C)C(O)C(OC)C1OC (centres unmarked) [Compound 31, 3-acetyl-4"-(3-pyridyl)acetyltylosin]	0.19 µg/mL (≈ 0.176 µM)	12.5 µg/mL (≈ 11.6 µM)	0.39 µg/mL (≈ 0.362 µM)	12.5 µg/mL (≈ 11.6 µM)	12.5 µg/mL (≈ 11.6 µM)	0.39 µg/mL (≈ 0.362 µM)	6.25 µg/mL (≈ 5.8 µM)	0.39 µg/mL (≈ 0.362 µM)								
CCC1OC(=O)CC(O)C(C)C(OC2OC(C)C(OC3CC(C)(O)C(OC(=O)CSc4ccc(C)cc4)C(C)O3)C(N(C)C)C2O)C(CC=O)CC(C)C(=O)C=CC(C)=CC1COC1OC(C)C(O)C(OC)C1OC (centres unmarked) [Compound 35, 4"-(4-methylphenyl)thioacetyltylosin]	0.78 µg/mL (≈ 0.722 µM)	50 µg/mL (≈ 46.3 µM)	1.56 µg/mL (≈ 1.44 µM)	25 µg/mL (≈ 23.1 µM)	25 µg/mL (≈ 23.1 µM)	1.56 µg/mL (≈ 1.44 µM)	12.5 µg/mL (≈ 11.6 µM)	1.56 µg/mL (≈ 1.44 µM)								
CCC1OC(=O)CC(O)C(C)C(OC2OC(C)C(OC3CC(C)(O)C(OC(=O)CSc4cccc(C)c4)C(C)O3)C(N(C)C)C2O)C(CC=O)CC(C)C(=O)C=CC(C)=CC1COC1OC(C)C(O)C(OC)C1OC (centres unmarked) [Compound 36, 4"-(3-methylphenyl)thioacetyltylosin]	0.39 µg/mL (≈ 0.361 µM)	50 µg/mL (≈ 46.3 µM)	0.78 µg/mL (≈ 0.722 µM)	50 µg/mL (≈ 46.3 µM)	25 µg/mL (≈ 23.1 µM)	0.78 µg/mL (≈ 0.722 µM)	25 µg/mL (≈ 23.1 µM)	0.78 µg/mL (≈ 0.722 µM)								
